According to patent publication US20240002425A1, “NOVEL AMINOALKYL GLUCOSAMINIDE 4-PHOSPHATE DERIVATIVE” (DAIICHI SANKYO COMPANY, LIMITED, priority 2020, published 2024):
Like-named read-outs stand apart in the source and are kept apart here.

How the values were obtained:
[1] = target: human TLR4 (Homo sapiens, UniProt O00206+Q9Y6Y9); experiment: Human TLR4 activating effect (HEK-Blue Human TLR4 Cells, SEAP reporter); assay type: cell-based; settings: 24 hours, SEAP Protein concentration
Method: The human TLR4 activating effect was studied using the compounds described in Examples 1 to 17 and monophosphoryl lipid A as Comparative Example A.
Triethanolamine was dissolved at 0.5% (v/v) in injectable distilled water to prepare an aqueous triethanolamine solution. 1 mg of each test drug was dissolved in 0.98 mL of the aqueous triethanolamine solution, and pH of the solution was then adjusted to 7.2 to 7.4 by the addition of 20 μL of 1 M HCl to prepare a 1 mg/mL solution. A dilution series of the test drug was prepared using a medium [DMEM (Nacalai Tesque, Inc.), 10% FBS (Sigma-Aldrich Co. LLC), 50 U/mL penicillin-50 μg/mL streptomycin (Thermo Fisher Scientific Inc.), 1×HEK-Blue Selection (InvivoGen), and 100 μg/mL Normocin (InvivoGen)]. 2×10^5 cells/mL HEK-Blue™ Human TLR4 Cells (InvivoGen) were inoculated to each well of a 96-well microplate for tissue culture (Iwaki), then treated with the test drug, and cultured at 37° C. for 24 hours under 5% CO2. The cells thus cultured were centrifuged at 400×g at 4° C. for 3 minutes. Recombinant SEAP Protein (InvivoGen) was used for a calibration curve. After addition of 180 μL of QUANTI-Blue (InvivoGen) to each well of 96 Well TC-Treated Microplates (Corning, Inc.), 20 μL each of the cell culture supernatant and a standard diluting solution was added to each well, and the plate was left standing at 37° C. for 4 hours. After reaction, absorbance (wavelength: 655 nm) was measured using a microplate reader (PerkinElmer, Inc., EnSpire), and a SEAP Protein concentration was calculated from the calibration curve and used as an index for TLR4 agonist activity. A drug concentration that induced reaction corresponding to 50% of the maximum reaction was calculated as EC50 (ng/mL) from a linear expression using two drug concentrations between which the drug concentration that induced reaction corresponding to 50% of the maximum reaction in each experiment was positioned, and measured values thereof.

[2] = system: various allergens (Japanese cedar pollen, mite, ragweed, timothy, peanut, milk); experiment: Immunostimulatory effect on various allergens by sublingual administration (allergen-specific IgG titer); assay type: in vivo, mouse; settings: allergen-sensitized mice, sublingual with allergen, up to 12 weeks; all the allergens; compared with allergen alone
Method: The compound described in Example 2(2e) was used to study its immunostimulatory effect on various allergens by sublingual administration.
Japanese cedar pollen antigen extracts were prepared by treating Japanese cedar pollen (Yamizo Pollen Study Group) with a solution containing 0.125 M NaHCO3 and 0.5 M NaCl for 24 hours (4° C.), and then insoluble matter was removed by filtration. The concentration of Cry j 1 contained in the extracts was measured, and the extracts were diluted into 12.5 μg/mL (10000 JAU/mL). Allergen scratch extracts (Torii Pharmaceutical Co., Ltd.) were used as mite, ragweed, timothy, peanut, and milk. Allergen sensitization was performed by intramuscularly administering the allergen (20 μL) to the mouse femoral region 1 week before the start of sublingual administration. The allergen scratch extracts of mite, ragweed, timothy, peanut, or milk were diluted 10-fold with PBS and used in allergen sensitization. Sublingual administration was started from 1 week after sensitization. […]
Each allergen was added at 25 μL/well (Japanese cedar pollen, 1 μg Cry j 1/mL; mite, ragweed, timothy, peanut, and milk, 1:1000 diluted) to a plate for ELISA, which was then left standing overnight at 4° C. […] Then, 30 μL of a TMB stop solution was added to each well, and absorbance at 450 nm was measured. […]

[3] = system: SARS-CoV-2 RBD; settings: mouse, in vivo
[4] = read-out: EC50 (ng/ml) (converted)

human TLR4, sequence (O00206 24-839): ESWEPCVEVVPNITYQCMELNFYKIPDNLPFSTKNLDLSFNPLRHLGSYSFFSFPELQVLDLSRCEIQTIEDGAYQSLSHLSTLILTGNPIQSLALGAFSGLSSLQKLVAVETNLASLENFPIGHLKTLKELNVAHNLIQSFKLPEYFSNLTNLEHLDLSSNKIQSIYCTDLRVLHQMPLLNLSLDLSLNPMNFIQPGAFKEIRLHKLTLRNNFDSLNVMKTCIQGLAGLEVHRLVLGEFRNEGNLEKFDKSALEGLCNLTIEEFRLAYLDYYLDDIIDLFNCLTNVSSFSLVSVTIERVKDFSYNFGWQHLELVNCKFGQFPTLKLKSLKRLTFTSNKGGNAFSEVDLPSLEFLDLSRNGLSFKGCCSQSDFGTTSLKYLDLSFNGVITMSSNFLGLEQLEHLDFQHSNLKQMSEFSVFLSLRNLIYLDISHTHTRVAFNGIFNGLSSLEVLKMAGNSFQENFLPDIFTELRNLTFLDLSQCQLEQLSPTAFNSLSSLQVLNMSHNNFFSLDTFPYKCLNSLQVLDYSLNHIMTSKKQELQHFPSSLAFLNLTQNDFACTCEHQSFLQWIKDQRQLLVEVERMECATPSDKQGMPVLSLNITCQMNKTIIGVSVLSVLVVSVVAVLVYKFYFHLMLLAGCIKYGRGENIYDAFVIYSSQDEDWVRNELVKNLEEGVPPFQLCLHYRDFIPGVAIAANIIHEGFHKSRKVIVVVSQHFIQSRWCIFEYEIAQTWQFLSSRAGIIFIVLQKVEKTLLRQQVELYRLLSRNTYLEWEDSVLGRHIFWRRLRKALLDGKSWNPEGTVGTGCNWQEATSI
human TLR4, sequence (Q9Y6Y9 17-160 limits assumed): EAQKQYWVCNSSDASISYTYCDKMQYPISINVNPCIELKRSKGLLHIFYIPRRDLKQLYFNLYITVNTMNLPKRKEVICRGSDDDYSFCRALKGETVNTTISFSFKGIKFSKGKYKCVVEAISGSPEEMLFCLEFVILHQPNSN

In the case of `CCCCCCCCCCC[C@H](CC(=O)N[C@@H](CO[C@@H]1O[C@H](CO[C@]2(C(=O)O)C[C@@H](O)[C@@H](O)[C@@H]([C@H](O)CO)O2)[C@@H](OP(=O)(O)O)[C@H](OC(=O)C[C@@H](CCCCCCCCCCC)OC(=O)CCCCCCCCC)[C@H]1NC(=O)C[C@@H](CCCCCCCCCCC)OC(=O)CCCCCCCCC)CC(=O)O)OC(=O)CCCCCCCCC` [Example 2(2e), Ammonium (3R)-3-{[(3R)-3-(decanoyloxy)tetradecanoyl]amino}-4-({3-O-[(3R)-3-(decanoyloxy)tetradecanoyl]-2-{[(3R)-3-(decanoyloxy)tetradecanoyl]amino}-2-deoxy-6-O-(3-deoxy-α-D-manno-oct-2-ulopyranonosyl)-4-O-phosphono-β-D-glucopyranosyl}oxy)butanoate], the EC50 [1, 4] is reported as 0.0499 nM, the “allergen-specific IgG titer in blood” value [2] is reported as “markedly higher” and the “anti-RBD IgA in blood” value [3] is reported as “markedly high”. For the same compound, the “anti-RBD IgA in nasal wash” value [3] was “induced at a high level” and the “anti-RBD IgG in blood” value [3] was “markedly high”.
`CCCCCCCCCCC[C@H](CC(=O)NC1C(CC[C@H](NC(=O)C[C@@H](CCCCCCCCCCC)OC(=O)CCCCCCCCC)C(=O)O)OC(COC2(C(=O)O)CC(O)C(O)C([C@H](O)CO)O2)C(OP(=O)(O)O)C1OC(=O)C[C@@H](CCCCCCCCCCC)OC(=O)CCCCCCCCC)OC(=O)CCCCCCCCC` (stereo partly drawn) [Example 14(14d), Ammonium 5,9-anhydro-7-O-[(3R)-3-(decanoyloxy)tetradecanoyl]-2,6-bis{[(3R)-3-(decanoyloxy)tetradecanoyl]amino}-2,3,4,6-tetradeoxy-10-O-(3-deoxy-α-D-manno-oct-2-ulopyranonosyl)-8-O-phosphono-D-erythro-L-galacto-decanoate] was tested, and the EC50 [1, 4] was 0.188 nM.
Work on `CCCCCCCCCCC[C@H](CC(=O)NC1C(CC[C@H](NC(=O)C[C@@H](CCCCCCCCCCC)OC(=O)CCCCCCCCC)C(=O)O)OC(COC2(C(=O)O)CC(OC3(C(=O)O)CC(O)C(O)C([C@H](O)CO)O3)C(O)C([C@H](O)CO)O2)C(OP(=O)(O)O)C1OC(=O)C[C@@H](CCCCCCCCCCC)OC(=O)CCCCCCCCC)OC(=O)CCCCCCCCC` (stereo partly drawn) [Example 15(15d), Ammonium 3-deoxy-α-D-manno-oct-2-ulopyranonosyl-(2-+4)-3-deoxy-α-D-manno-oct-2-ulopyranonosyl-(2-+10)-5,9-anhydro-7-O-[(3R)-3-(decanoyloxy)tetradecanoyl]-2,6-bis{[(3R)-3-(decanoyloxy)tetradecanoyl]amino}-2,3,4,6-tetradeoxy-8-O-phosphono-D-erythro-L-galacto-decanoate] yielded an EC50 [1, 4] of 0.4 nM.
Compound `CCCCCCCCCCC[C@H](CC(=O)NC1C(CC[C@H](NC(=O)C[C@@H](CCCCCCCCCCC)OC(=O)CCCCCCCCC)C(=O)O)OC(CF)C(OP(=O)(O)O)C1OC(=O)C[C@@H](CCCCCCCCCCC)OC(=O)CCCCCCCCC)OC(=O)CCCCCCCCC` (stereo partly drawn) [Example 16(16b), Ammonium 5,9-anhydro-7-O-[(3R)-3-(decanoyloxy)tetradecanoyl]-2,6-bis{[(3R)-3-(decanoyloxy)tetradecanoyl]amino}-2,3,4,6,10-pentadeoxy-10-fluoro-8-O-phosphono-D-erythro-L-galacto-decanoate] has an EC50 [1, 4] of 1.01 nM.
Work on `CCCCCCCCCCC[C@H](CC(=O)NC1C(CC[C@H](NC(=O)C[C@@H](CCCCCCCCCCC)OCCCCCCCCCC)C(=O)O)OC(CO)C(OP(=O)(O)O)C1OC(=O)C[C@@H](CCCCCCCCCCC)OCCCCCCCCCC)OCCCCCCCCCC` (stereo partly drawn) [Example 17(17h), Ammonium 5,9-anhydro-7-O-[(3R)-3-(decyloxy)tetradecanoyl]-2,6-bis{[(3R)-3-(decyloxy)tetradecanoyl]amino}-2,3,4,6-tetradeoxy-8-O-phosphono-D-erythro-L-galacto-decanoate] yielded an EC50 [1, 4] of 0.969 nM.
“monophosphoryl lipid A [Comparative Example A, reference compound]” was tested, and the “EC50” value [1] was over 0.01 µg/mL.
